Measured values as given in patent US20260256716A1, “COMPOSITIONS AND METHODS OF USE THEREOF” (Board of Supervisors of Louisiana State University and …, priority 2023, published 2026).
“Also recorded” adds a separate entry of the source.

Columns and labels:
[1] = tested on: ARPE-19 cells; assay: Hyperglycemia induced SA-β-Gal cellular senescence in ARPE-19 cells (HPLM); assay type: cell-based, human
Method: Consistent with Retinal Deterioration by Glucose-Induced Cellular Senescence in the Diabetic Population, Hyperglycemic conditions induce increased disease promoting Cellular Senescence that is abrogated by low nM concentrations of the Representative 5-HT2A Receptor Agonist, R-DOI Returning to Base-line Homeostatic Levels. ARPE-19 cells in physiologically relevant media (HPLM; 7% FCS) were seeded overnight prior to being replaced with starvation media (HPLM 0.5% FCS) containing 10 nM R-DOI. After overnight incubation in starvation media, cells were swapped to media containing diabetic blood glucose levels (HPLM 7% FCS containing 5 mM, 10 mM, 20 mM, or 30 mM glucose) for 72-hours. After the 72-hour incubation, cells were fixed and stained for SA-β-Gal for 6-hours. Cells nuclei were then stained with DAPI for total-cell enumeration. SA-β-Gal positive cells, and total cells per frame, were quantified by microscopy. Pathological/diabetic glucose concentrations induce cellular senescence. 5-HT2A receptor agonism alleviates glucose-induced senescence at diabetic blood glucose levels. […]
Effects of specific phenethylamine 5-HT2A receptor agonists on reduction of Hyperglycemia induced Disease Promoting Cellular Senescence: Inhibition of Cell Senescence and Disease Processes are Drug and Dose Dependent. […] SA-3-Gal positive cells, and total cells per frame, were quantified by microscopy. For each 5-HT2A agonist assessed, the % of senescent cells is expressed relative to the hyperglycemic control. […]
Inhibition of Cell Senescence and Disease Processes are Drug and Dose Dependent. […] SA-β-Gal positive cells, and total cells per frame, were quantified by microscopy. For each 5-HT2A agonist assessed, the % of senescent cells is expressed relative to the hyperglycemic control. […]

[2] = tested on: ARPE-19 cells; assay: ARPE-19 proliferation (DAPI cell number, fold change in growth); assay type: cell-based, human; conditions: for cellular replication / proliferation: physiologically relevant serotonin levels, 72 h
Method: Specific 5-HT2A Receptor Activation via Model Phenethylamines, like R-DOI. […] ARPE-19 cells were plated in nutrient rich media, DMEM, containing 7% dialyzed FCS and then starved in DMEM media containing 0.5% dialyzed FCS. Cells were then changed to 7% dialyzed FCS DMEM media containing physiolocial relevant levels of serotonin at varying concentrations and grown for 72-hours. Cell numbers were determined through DNA staining with DAPI and fold change in growth was determined from baseline readings at 24-hours. To assess if agonists of the 5HT2A receptor could enhance cell health and proliferation specifically through the 5-HT2A receptor, the model 5-HT2A receptor agonist, R-DOI was added at either 0.1 nM or 1 nM. […] Also, included is a summary of physiological serotonin and 5-HT2A receptor agonist/antagonist outcomes on cellular proliferation. This increase in proliferation promotes the formation of a compact RPE-monolayer which is important for maintaining a healthy blood-retinal barrier and can occur with low dose administration of 5-HT2A receptor agonists.
ARPE-19 cells were plated in nutrient rich media, DMEM, containing 7% dialyzed FCS and then starved in DMEM media containing 0.5% dialyzed FCS. Cells were then changed to 7% dialyzed FCS DMEM media containing physiological relevant levels of serotonin at varying concentrations and grown for 72-hours. Cell numbers were determined through DNA staining with DAPI and fold change in growth was determined from baseline readings at 24-hours. To assess if serotonin enhances cell health and proliferation specifically through the 5-HT2A receptor, the 5-HT2A receptor antagonist, M100,907 at 10 nM was included during serotonin induction.

[3] = tested on: ARPE-19 cells; assay: SA-β-Gal cellular senescence in ARPE-19 cells in nutrient rich media (DMEM); assay type: cell-based, human; conditions: 10 nM in starvation media overnight, then DMEM 7% FCS 72 hours
Method: ARPE-19 cells in nutrient rich media (DMEM; 7% FCS) were seeded overnight prior to being replaced with starvation media (DMEM; 0.5% FCS) containing 10 nM R-DOI or 10 nM M100,907. After overnight incubation in starvation media with drug, cells were swapped to DMEM 7% FCS media for 72-hours. After the 72-hour incubation, cells were fixed and stained for SA-β-Gal for 6-hours. Cells nuclei were then stained with DAPI for total-cell enumeration. SA-β-Gal positive cells, and total cells per frame, were quantified by microscopy.

[4] = tested on: ARPE-19 cells; assay: FACS forward scatter cell size of ARPE-19 cells; assay type: cell-based, human; conditions: treated overnight, then 4 days in normal media
Description: Upon initial seeding of potential 5HT2A KD cells there was a readily apparent alteration of normal ARPE cell morphology. Cells appeared flattened, extended, highly attached and enlarged. Each cell line isolate maintained this enlarged and flattened cell morphology as shown to the right and quantified below. […] This markedly altered morphology is present in cells that have begun to undergo changes related to aging, including evolving a senescent or pre-senescent phenotype. Therefore, FACS analysis of 5HT2A KD cells was performed comparing the cell size of Forward Scatter to ARPE-19 cells, treated overnight with Etoposide, an inhibitor of topoisomerase, and a known inducer of cell senescence, and then cultured for 4 days in normal media in the absence of etoposide. […] Further an increase in particles of “cell degranulation” sizing was also observed in all conditions compared to ARPE-19 WT controls.

[5] = tested on: phosphorylated myosin light chain; assay: Western blot of phosphorylated myosin light chain (MLC) in ARPE-19 cells under hyperglycemic conditions; assay type: cell-based, human
Method: A Hallmark of Age-Associated Ocular and Neurodegenerative Disorders is Cytoskeletal Alteration and Induction of CONTRACTILE Stress Fiber Formation. Expression and activation via phosphorylation of Myosin Light Chain (MLC), is a biomarker of disease development. ARPE-19 cells and ARPE-19 cells specifying 5-HT2AR knockouts were plated in nutrient rich media (DMEM; 7% FCS) overnight. Cells were fixed, permeabilized, and stained phalloidin and α-phosphorylated-Myosin light chain. Cytoskeletal elements were then visualized by fluorescent microscopy to visualize actin fiber cytoskeletal structures (phalloidin, red) and contractile phosphorylated myosin light chain (green) via fluorescent microscopy. […] ARPE-19 cells were cultured under hyperglycemic conditions in nutrient rich media (DMEM High glucose; 7% FCS) overnight either in the absence or presence of 5-HT2A receptor agonists R-DOI and 2CiBu at 10 nm or 100 nM concentrations. The relative expression of the activated disease biomarker contractile phosphorylated myosin light chain was determined using specific antibodies and western blot analysis. 5-HT2A agonists. […] Therefore, 5-HT2A agonism at low concentrations have the potential to prevent and reverse deleterious cytoskeletal events that can be induced under hyperglycemic conditions, such as in diabetics.
This can be consistent with 2C-iBu being able to regulate IOP and that 5HT2A agonists prevented edema formation and disruption of corneal architecture in a model of herpetic keratitis.

[6] = tested on: ARPE cells; assay: Blue light induced mitochondrial fragmentation in ARPE cells (mitotracker green); assay type: cell-based, human; conditions: 100 nM; 48 hours; hyperglycemic conditions; blue light 400 nm
Method: ARPE cells grown under hyperglycemic conditions were plated and mock treated or treated with R-DOI or 2C-iBu at 100 nM. 48 hours post treatment, mitochondria in live cells were visualized by staining mitochondria with mitotracker green (green). Once stained, live ARPE cells were exposed to focused blue light at 400 nm and the ability of drugs to protect against blue light damage-induced mitochondrial fragmentation was assessed.

[7] = tested on: ARPE-19 cells; assay: ATP luciferase assay in ARPE-19 cells; assay type: cell-based, human
[8] = tested on: A549 cells; assay: Cell viability after cumene peroxide oxidative stress (Hoechst / propidium iodide); assay type: cell-based
Method: A549 cells were treated with the indicated concentrations of R-DOI (panel A) or 2C-iBu (panel B) and subsequently exposed to cumene peroxide to oxidatively stress cells. Cell viability was visualized by staining with Hoescht (Blue) to mark total cells (live plus dead) and propidium iodide (red) to mark dead cells.

[9] = tested on: AMP kinase; assay: AMP kinase activation in treated cells; assay type: cell-based; conditions: low nM concentrations

## COc1cc(C(F)(F)F)c(OC)cc1C[C@@H](C)N [R-DOTFM]
[1]
  concentration at which disease is exacerbated: ≥ 10 nM
[1]; 1 uM to 0.1 nM, HPLM 30 mM glucose, 72 hours
  hyperglycemia induced cellular senescence relative to hyperglycemic control: enhances rather than inhibits Aging-Associated Disease Processes and Cellular Senescence

## COc1cccc([C@H](O)C2CCN(CCc3ccc(F)cc3)CC2)c1OC [M100,907, reference compound]
[2]; antagonist at 10 nM during serotonin induction
  serotonin-mediated enhanced replication: abrogated serotonin-mediated enhanced replication
[3]
  cellular senescence (SA-β-Gal positive cells): Increases Proportions of Cellular Senescence

## NCCc1c[nH]c2ccc(O)cc12 [Serotonin, 5-hydroxytryptamine]
[2]
  cellular replication / proliferation: Enhances Cellular Health and Replication
[2]; listed as 5-HT
  cellular replication / proliferation: increase cellular replication; also recorded: increase ARPE-19 Proliferation
[2]; listed as serotonin
  cellular replication / proliferation: enhance cellular replication patterns; also recorded: enhance replication of cells

## COc1cc([C@@H]2c3cc4c(cc3[C@@H](O[C@@H]3O[C@@H]5CO[C@@H](C)O[C@H]5[C@H](O)[C@H]3O)[C@H]3COC(=O)[C@H]23)OCO4)cc(OC)c1O [etoposide]
[4]
  cell size (forward scatter): increased cell size

## COc1cc(CC(C)C)c(OC)cc1CCN [2C-iBu, 2,5-Dimethoxy-4-isobutylphenethylamine]
[5]; ARPE-19, DMEM High glucose 7% FCS overnight, 10 nM, western blot
  hyperglycemia induced phosphorylated MLC levels: suppressed hyperglycemia induced phosphorylated MLC levels
[5]; WT ARPE-19 in media with hyperglycemic glucose (17.5 mM), low dose, not high doses
  phosphorylation of MLC: inhibited
[6]
  blue light induced mitochondrial fragmentation/damage: Inhibit Blue Light and Oxidative Stress Induced Mitochondrial Fragmentation/Damage
[7]; 10 fold dilutions 100 nM to 0.1 nM
  ATP levels relative to Mock treated ARPE-19 cells: Increase Mitochondrial Function And ATP Production
[7]; ARPE WT cells, 24 h after administration
  production of ATP: enhanced production of ATP
[8]
  oxidative stress-induced cell death: protected cells from oxidative stress-induced cell death
[9]
  AMP kinase activation: activation of AMP kinase
